Assay [1] relates to P. cynomolgi M/B strain parasites. Briefly: P. cynomolgi M/B strain drug assay (Hoechst flow cytometry). Particulars: Plasmodium cynomolgi, harvested 60 hours after initial dosing. Type of assay: cell-based. The text has this: Detailed information on materials and methods is available in the supplementary materials. […] P. knowlesi assays were quantitatively measured by flow cytometry using SYBR Green I and Mitrotracker Deep Red, as previously described ([84], [85]), on a Beckman Coulter CytoFLEX. Nonhuman primate infections were required to generate P. cynomolgi M/B strain parasites for in vitro testing ([82], [86]). […]
reduction in weight, aggressive or unexpected animal behavior, animals are immediately euthanized with CO2. If no toxic effects are observed, mice are euthanized with CO2 at the end of […]
After infection, parasitemia was monitored daily by thick and thin blood films as previously described in Joyner et al. 2019 (86). […]
dosing. […] The experiment was repeated twice, and each concentration was assessed in […]
Data analysis The percentage of parasitized erythrocytes was determined by enumerating the number of Hoechst positive events out of the total erythrocytes after excluding non-single cells by forward and side scatter. The percent survival was calculated by averaging the parasitemia in the triplicates for each condition and then dividing by the parasitemia observed in the wells that did not receive drug treatment. The IC50 was then calculated using GraphPad Prism 9 (GraphPad […]
In general terms: A flow cytometer gives signals particle by particle.

The test system of a further assay is hTERT. The assay can be described thus: Human cell line activity, hTERT. Particulars: read-out: IC50 (µM) hTERT. The assay is classed as cell-based.

A word on the IC50: it is the concentration at which inhibition is half-maximal.

Turning to `[C-]#[N+][C@]1(C)CC[C@H]2[C@@H]([C@@H](C(C)C)CC[C@]2(C)[N+]#[C-])[C@H]1O` [MED6-189], the 50% inhibitory concentration (IC50) turned out to be 0.136 ± 0.056 µM in assay [1] and 26 µM in the assay with hTERT.

The values above are taken from publication PMC11793105, “A kalihinol analog disrupts apicoplast function and vesicular trafficking in P. falciparum malaria” (Science (New York, N.Y.), 2024).
